In PubChem BioAssay (NCI):
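A five-concentration, 48-hour dose response in 96-well plates underlies each endpoint, interpolated linearly between surrounding concentrations. GI50: concentration for 50% inhibition of growth. TGI: total growth inhibition.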

Assays:
Experiment in all cases: growth of human tumour cells (NCI), 48 h
786-0 renal = test system: 786-0 renal
A498 renal = test system: A498 renal
A549 NSCLC = test system: A549 NSCLC
ACHN renal = test system: ACHN renal
BT-549 breast = test system: BT-549 breast
CAKI-1 renal = test system: CAKI-1 renal
CCRF-CEM leukemia = test system: CCRF-CEM leukemia
COLO 205 colon = test system: COLO 205 colon
DU-145 prostate = test system: DU-145 prostate
EKVX NSCLC = test system: EKVX NSCLC
HCC-2998 colon = test system: HCC-2998 colon
HCT-116 colon = test system: HCT-116 colon
HCT-15 colon = test system: HCT-15 colon
HL-60(TB) leukemia = test system: HL-60(TB) leukemia
HOP-62 NSCLC = test system: HOP-62 NSCLC
HOP-92 NSCLC = test system: HOP-92 NSCLC
HS 578T breast = test system: HS 578T breast
HT29 colon = test system: HT29 colon
IGROV1 ovarian = test system: IGROV1 ovarian
K-562 leukemia = test system: K-562 leukemia
KM12 colon = test system: KM12 colon
LOX IMVI melanoma = test system: LOX IMVI melanoma
M14 melanoma = test system: M14 melanoma
MALME-3M melanoma = test system: MALME-3M melanoma
MCF7 breast = test system: MCF7 breast
MDA-MB-231 breast = test system: MDA-MB-231 breast
MDA-MB-435 = test system: MDA-MB-435
MDA-MB-468 breast = test system: MDA-MB-468 breast
MOLT-4 leukemia = test system: MOLT-4 leukemia
NCI-H226 lung = test system: NCI-H226 lung
NCI-H23 lung = test system: NCI-H23 lung
NCI-H460 lung = test system: NCI-H460 lung
NCI-H522 lung = test system: NCI-H522 lung
NCI/ADR-RES ovarian = test system: NCI/ADR-RES ovarian
OVCAR-3 ovarian = test system: OVCAR-3 ovarian
OVCAR-4 ovarian = test system: OVCAR-4 ovarian
OVCAR-5 ovarian = test system: OVCAR-5 ovarian
OVCAR-8 ovarian = test system: OVCAR-8 ovarian
PC-3 prostate = test system: PC-3 prostate
RPMI-8226 leukemia = test system: RPMI-8226 leukemia
RXF 393 renal = test system: RXF 393 renal
SF-268 CNS = test system: SF-268 CNS
SF-295 CNS = test system: SF-295 CNS
SF-539 CNS = test system: SF-539 CNS
SK-MEL-2 melanoma = test system: SK-MEL-2 melanoma
SK-MEL-28 melanoma = test system: SK-MEL-28 melanoma
SK-MEL-5 melanoma = test system: SK-MEL-5 melanoma
SK-OV-3 ovarian = test system: SK-OV-3 ovarian
SN12C renal = test system: SN12C renal
SNB-19 CNS = test system: SNB-19 CNS
SNB-75 CNS = test system: SNB-75 CNS
SR leukemia = test system: SR leukemia
SW-620 colon = test system: SW-620 colon
T-47D breast = test system: T-47D breast
TK-10 renal = test system: TK-10 renal
U251 CNS = test system: U251 CNS
UACC-257 melanoma = test system: UACC-257 melanoma
UACC-62 melanoma = test system: UACC-62 melanoma
UO-31 renal = test system: UO-31 renal

CN1CCN(CCS(=O)(=O)Nc2cc(-c3ccc4ncnc(Nc5ccc(F)c(Cl)c5)c4c3)cnc2Cl)CC1
GI50 (786-0 renal): 1.84 µM | TGI (786-0 renal): > 100 µM | GI50 (A498 renal): 1.03 µM | TGI (A498 renal): 4.4 µM | GI50 (A549 NSCLC): 11.1 µM | TGI (A549 NSCLC): 49.9 µM | GI50 (ACHN renal): 3.67 µM | TGI (ACHN renal): > 100 µM | GI50 (BT-549 breast): 1.06 µM | TGI (BT-549 breast): 4.28 µM | GI50 (CAKI-1 renal): 1.33 µM | TGI (CAKI-1 renal): 19 µM | GI50 (CCRF-CEM leukemia): 0.579 µM | TGI (CCRF-CEM leukemia): 80.4 µM | GI50 (COLO 205 colon): 2.74 µM | TGI (COLO 205 colon): 10.4 µM | GI50 (DU-145 prostate): 3.23 µM | TGI (DU-145 prostate): > 100 µM | GI50 (EKVX NSCLC): 1.23 µM | TGI (EKVX NSCLC): 6.36 µM | GI50 (HCC-2998 colon): 1.6 µM | TGI (HCC-2998 colon): 6.2 µM | GI50 (HCT-116 colon): 4.18 µM | TGI (HCT-116 colon): 18.5 µM | GI50 (HCT-15 colon): 4.38 µM | TGI (HCT-15 colon): 43.6 µM | GI50 (HL-60(TB) leukemia): 0.658 µM | TGI (HL-60(TB) leukemia): 23.7 µM | GI50 (HOP-62 NSCLC): 2.04 µM | TGI (HOP-62 NSCLC): 38.4 µM | GI50 (HOP-92 NSCLC): 0.675 µM | TGI (HOP-92 NSCLC): 7.13 µM | GI50 (HS 578T breast): 0.32 µM | TGI (HS 578T breast): 3.75 µM | GI50 (HT29 colon): 3.87 µM | TGI (HT29 colon): 21.5 µM | GI50 (IGROV1 ovarian): 0.686 µM | TGI (IGROV1 ovarian): 2.93 µM | GI50 (K-562 leukemia): 4.5 µM | TGI (K-562 leukemia): > 100 µM | GI50 (KM12 colon): 8.23 µM | TGI (KM12 colon): 31.5 µM | GI50 (LOX IMVI melanoma): 1.17 µM | TGI (LOX IMVI melanoma): 2.92 µM | GI50 (M14 melanoma): 3.34 µM | TGI (M14 melanoma): 20.5 µM | GI50 (MALME-3M melanoma): 0.726 µM | TGI (MALME-3M melanoma): 5.76 µM | GI50 (MCF7 breast): 1.16 µM | TGI (MCF7 breast): 15.3 µM | GI50 (MDA-MB-231 breast): 1.74 µM | TGI (MDA-MB-231 breast): 4.13 µM | GI50 (MDA-MB-435): 3.11 µM | TGI (MDA-MB-435): 16 µM | GI50 (MDA-MB-468 breast): 0.205 µM | TGI (MDA-MB-468 breast): 0.902 µM | GI50 (MOLT-4 leukemia): 2.5 µM | TGI (MOLT-4 leukemia): 7.08 µM | GI50 (NCI-H226 lung): 1.96 µM | TGI (NCI-H226 lung): > 100 µM | GI50 (NCI-H23 lung): 2.8 µM | TGI (NCI-H23 lung): 15.1 µM | GI50 (NCI-H460 lung): 5.85 µM | TGI (NCI-H460 lung): > 100 µM | GI50 (NCI-H522 lung): 1.96 µM | TGI (NCI-H522 lung): 11.3 µM | GI50 (NCI/ADR-RES ovarian): 66.6 µM | TGI (NCI/ADR-RES ovarian): > 100 µM | GI50 (OVCAR-3 ovarian): 0.596 µM | TGI (OVCAR-3 ovarian): 2.99 µM | GI50 (OVCAR-4 ovarian): 5.45 µM | TGI (OVCAR-4 ovarian): > 100 µM | GI50 (OVCAR-5 ovarian): 2.56 µM | TGI (OVCAR-5 ovarian): 27 µM | GI50 (OVCAR-8 ovarian): 3.73 µM | TGI (OVCAR-8 ovarian): 23.1 µM | GI50 (PC-3 prostate): 2.09 µM | TGI (PC-3 prostate): 19.6 µM | GI50 (RPMI-8226 leukemia): 13.5 µM | TGI (RPMI-8226 leukemia): 38 µM | GI50 (RXF 393 renal): 0.784 µM | TGI (RXF 393 renal): 3.85 µM | GI50 (SF-268 CNS): 1.8 µM | TGI (SF-268 CNS): 37.7 µM | GI50 (SF-295 CNS): 3.01 µM | TGI (SF-295 CNS): 65.1 µM | GI50 (SF-539 CNS): 1.82 µM | TGI (SF-539 CNS): 6.8 µM | GI50 (SK-MEL-2 melanoma): 2.32 µM | TGI (SK-MEL-2 melanoma): 7.79 µM | GI50 (SK-MEL-28 melanoma): 2.39 µM | TGI (SK-MEL-28 melanoma): 37.4 µM | GI50 (SK-MEL-5 melanoma): 1.61 µM | TGI (SK-MEL-5 melanoma): 4.34 µM | GI50 (SK-OV-3 ovarian): 1.59 µM | TGI (SK-OV-3 ovarian): 7.28 µM | GI50 (SN12C renal): 3.25 µM | TGI (SN12C renal): > 100 µM | GI50 (SNB-19 CNS): 1.97 µM | TGI (SNB-19 CNS): > 100 µM | GI50 (SNB-75 CNS): 0.458 µM | TGI (SNB-75 CNS): 11 µM | GI50 (SR leukemia): 2.06 µM | TGI (SR leukemia): 7.68 µM | GI50 (SW-620 colon): 1.95 µM | TGI (SW-620 colon): 38.6 µM | GI50 (T-47D breast): 0.221 µM | TGI (T-47D breast): 3.12 µM | GI50 (TK-10 renal): 1.83 µM | TGI (TK-10 renal): 13.2 µM | GI50 (U251 CNS): 3.12 µM | TGI (U251 CNS): > 100 µM | GI50 (UACC-257 melanoma): 3.02 µM | TGI (UACC-257 melanoma): 17.2 µM | GI50 (UACC-62 melanoma): 1.18 µM | TGI (UACC-62 melanoma): 9.65 µM | GI50 (UO-31 renal): 2.07 µM | TGI (UO-31 renal): 13.4 µM
